6 molecules from US4584376A, “1-heterocyclicthio-1-cyclopropanecarbonitriles as crop protectants” (Monsanto Company, priority 1982, dated 1986) can be followed below.

What all share (type): in vivo
One assay concerns Rice. In words: Greenhouse safening test: % plant inhibition of rice by herbicide with and without safener. Particulars: approx. 21 days; for % Plant Inhibition, Rice (herbicide alone): right-hand figure; for % Plant Inhibition, Rice (herbicide plus safener): left-hand figure. On the procedure:
(§1) Seed plantings and the sequential application of the herbicide and safening agents are accomplished in the following manner:
(§2) A fumigated silt loam to top soil is placed in a container and compacted to a depth of approximately 1.27 cm. from the top of said container. A predetermined number of seeds of each of the crop species to be tested are placed on top of the soil. A quantity of soil sufficient to substantially fill the container is measured and placed in a second container. A measured quantity of the herbicide dispersed or dissolved in a suitable carrier is applied to the soil in the second container. A measured quantity of the safening agent dispersed or dissolved in a suitable carrier is thereafter sprayed on the soil already treated with the […]. The soil containing the safening agent and/or herbicide is thoroughly mixed. This mixing is sometimes referred to as incorporation of the herbicide and safening agent into the soil. The mixing or incorporation provides a substantially uniform distribution of the safening agent and herbicide throughout the soil. The seeds are covered with the soil containing the safening agent and/or herbicide or with untreated soil, and the pots are leveled. The pots are then placed on a sand bench in a greenhouse and watered from below as needed. When the seeds are treated with safener, the application of the safener to the soil is omitted. The coated seeds are placed on top of the soil in the pot and the balance of the treatment procedure is the same. The plants are observed at the end of approximately 21 days and the results in terms of percent inhibition of growth are recorded.
(§3) For each test series, a pot is also prepared containing no herbicide and no safening agent as a control. For each treatment, the herbicidal activity is observed on pots treated with the same quantity of herbicide alone. The results are observed and recorded as percent inhibition of each plant species tested. The tank mixes of know herbicides, safeners or combinations thereof were prepared by dissolving the appropriate amount of active ingredient in acetone. In Table 2 the results of testing the compounds of the present invention have been set forth. The rates of herbicide application are given in kilograms per hectare. In each treatment the amount of safener employed was 9.0 kilograms per hectare. In the % Plant Inhibition section of Table 2 under the listed crop columns the data are the inhibitions for herbicide plus safener on the left side and for the herbicide alone on the right side. The known herbicides are identified as follows. Throughout the examples, the herbicides are individually identified by reference numbers H-1 and H-2.

A further assay relates to Sorghum. In words: Greenhouse safening test: % plant inhibition of sorghum by herbicide with and without safener. The following applies: approx. 21 days; for % Plant Inhibition, Sorghum (herbicide plus safener): H-1 (alachlor) 2.2 kg/ha plus safener 9.0 kg/ha, left-hand figure. The protocol: as §1, §2, §3
The next assay relates to Wheat. Description: Greenhouse safening test: % plant inhibition of wheat by herbicide with and without safener. Particulars: approx. 21 days; for % Plant Inhibition, Wheat (herbicide plus safener): H-1 (alachlor) 2.2 kg/ha plus safener 9.0 kg/ha, left-hand figure. On the procedure: as §1, §2, §3
The mark [1] stands for this setting: H-2 (butachlor) 4.5 kg/ha plus safener 9.0 kg/ha.
Where [2] appears, read: H-1 (alachlor) 2.2 kg/ha alone, right-hand figure.

Where “and” joins values, the source holds several entries; their conditions need not be identical. Equal values may be shown once.

For `CCCCOCN(C(=O)CCl)c1c(CC)cccc1CC` [Compound H-2, 2-chloro-2',6'-diethyl-N-(butoxymethyl) acetanilide, reference compound], the “% Plant Inhibition, Rice (herbicide alone)” value with Rice (H-2 (butachlor) 4.5 kg/ha alone) was 90% and 75% and 60%.
`Cn1c(SC2(C#N)CC2)nnc1C(F)(F)F` [Compound 1, 1([4-methyl-5-(trifluoromethyl)4H.1,2,4-triazol-3 yl]thio)-1-cyclopropanecarbonitrile]: the “% Plant Inhibition, Sorghum (herbicide plus safener)” value in the assay with Sorghum was determined as 100%. The “% Plant Inhibition, Wheat (herbicide plus safener)” value in the assay on Wheat was 75%. The “% Plant Inhibition, Rice (herbicide plus safener)” value in the assay on Rice (setting [1]) amounted to 95%.
On the same counts, the results for `Cc1ccnc(SC2(C#N)CC2)n1` [Compound 3, 1-[(4-methyl-2-pyrimidinyl)thio]-1-cyclopropanecarbonitrile] are 95%, 90% and 40%.
In the same order, the values of `Cn1ccnc1SC1(C#N)CC1` [Compound 4, 1-[(1-methyl-1H--imidazol-2-yl)thio]-1-cyclopropanecarbonitrile] are 20%, 100% and 95%.
As to `N#CC1(Sc2nc(-c3ccccc3)cs2)CC1` [Compound 2, 1-[(4-phenyl-2-thiazolyl)thio]-1-cyclopropanecarbonitrile], the “% Plant Inhibition, Sorghum (herbicide plus safener)” value with Sorghum was found to be 45%. The “% Plant Inhibition, Rice (herbicide plus safener)” value came out at 95% in the assay on Rice (H-1 (alachlor) 2.2 kg/ha plus safener 9.0 kg/ha) and 90% with Rice (setting [1]).
For `CCc1cccc(CC)c1N(COC)C(=O)CCl` [Compound H-1, 2-chloro-2',6'-diethyl-N-(methoxymethyl) acetanilide, reference compound], in the assay on Sorghum (setting [2]), the “% Plant Inhibition, Sorghum (herbicide alone)” value was 90% and 80% and 85%. The “% Plant Inhibition, Wheat (herbicide alone)” value with Wheat (setting [2]) is 90% and 75% and 80%. For the same molecule, in the assay on Rice (H-1 (alachlor) 2.2 kg/ha alone), the “% Plant Inhibition, Rice (herbicide alone)” value was 90%.
